Values of other authors, collected in patent US20060094734A1, “Composition and method for inducing alertness” (priority 2004, published 2006).

System: rats
Conditions: rat, in vivo

NCCS(=O)(=O)O [taurine, 2-aminoethanesulfonic acid]
LD 50: greater than 5,000 mg/kg
